US20130210860A1, “PROPHYLACTIC AND/OR THERAPEUTIC AGENT AGAINST LYMPHEDEMA” (KOWA CO., LTD., priority 2010, published 2013)

How the values were obtained:
[1] = tested on: mouse model of abdominal wall lymphedema; test: Mouse model of abdominal wall lymphedema, thickness of the skin section (wild-type mouse); assay type: in vivo, C57BL/6J mouse; conditions: for lymphedema (thickness of the skin): C57BL/6J mice, combined results of Experiments 2 and 3, pitavastatin 1 mg/kg/day, atorvastatin 2.5 or 1 mg/kg/day, pravastatin 1 mg/kg/day oral, after seven days, FIG. 2
Procedure: (§1) A male C57BL/6J mouse and a male eNOS-deficient mouse having a genetic background of C57BL/6J, both of which are eight weeks old at the time of surgery, each receives an intraperitoneal injection of Nembutal at 60 mg/kg, and further receives a subcutaneous injection of 1% Evans blue for identification of lymph nodes and lymphatic vessels in the dorsum of the right foot, the back of the hand, and the buttocks in an amount of 0.05 mL at each site. The abdominal hair was removed and the abdominal skin is incised in an open-door fashion so as to identify the inguinal lymph nodes, axillary lymph nodes, and lymphatic vessels connecting these lymph nodes in the right abdominal wall. The lymphatic vessels are ligated at two to three sites near the axillary lymph nodes, followed by excision of the axillary lymph nodes. Subsequently, the skin is sutured, whereby the surgery is completed. On the seventh day after the surgery, the abdominal skin is once again incised in an open-door fashion to collect the abdominal wall tissues. The mice were orally administered with the statins dissolved in distilled water (250 μl) from three days before to seven days after the surgery once a day. […] Methanol-fixed paraffin-embedded tissue sections were stained with hematoxylin, and the thickness of the skin section prepared from the upper inguinal area, which is the lowermost part of a mouse, was measured. Anatomically, interstitial fluid tends to be accumulated in this area.

[2] = tested on: mouse model of abdominal wall lymphedema; test: Mouse model of abdominal wall lymphedema, thickness of the skin section (eNOS-deficient mouse); assay type: in vivo, eNOS-deficient mouse having a genetic background of C57BL/6J; conditions: Experiment 1, 10 mg/kg/day oral, once a day from three days before to seven days after the surgery, FIG. 1
Procedure: as §1, with “Anatomically, interstitial fluid tends to be accumulated in this area.” left out

[3] = tested on: mouse model of abdominal wall lymphedema; test: Visual examination by lymphangiography (Evans blue): leakage of lymph fluid and lymphatic flow in the lymphedema model; assay type: in vivo, C57BL/6J mouse; conditions: C57BL/6J mice; administration method of Experiment 3 (1 mg/kg/day oral); lymphangiography on the seventh and fourteenth days after the surgery; FIG. 3
Procedure: A male C57BL/6J mouse and a male eNOS-deficient mouse having a genetic background of C57BL/6J, both of which are eight weeks old at the time of surgery, each receives an intraperitoneal injection of Nembutal at 60 mg/kg, and further receives a subcutaneous injection of 1% Evans blue for identification of lymph nodes and lymphatic vessels in the dorsum of the right foot, the back of the hand, and the buttocks in an amount of 0.05 mL at each site. The abdominal hair was removed and the abdominal skin is incised in an open-door fashion so as to identify the inguinal lymph nodes, axillary lymph nodes, and lymphatic vessels connecting these lymph nodes in the right abdominal wall. The lymphatic vessels are ligated at two to three sites near the axillary lymph nodes, followed by excision of the axillary lymph nodes. Subsequently, the skin is sutured, whereby the surgery is completed. […]
On the seventh and fourteenth days after the surgery, 0.05 μl of 1% Evans blue was locally injected into the inguinal lymph nodes for lymphangiography, whereby leakage of lymph fluid and lymphatic flow were evaluated.
Each statin was administered by the administration method employed in Experiment 3) and the leakage of lymph fluid and lymphatic flow were evaluated by lymphangiography of the lymph node tissues.

SMILES | lymphedema (thickness of the skin) [1] | lymphedema (thickness of the skin section prepared from the upper inguinal area) ([1]; wild-type mouse, Experiment 1, 10 mg/kg/day oral, once a day from three days before to seven days after the surgery, FIG. 1) | lymphedema (thickness of the skin section prepared from the upper inguinal area) [2] | leakage of lymph fluid [3]
O=C(O)C[C@H](O)C[C@H](O)/C=C/c1c(C2CC2)nc2ccccc2c1-c1ccc(F)cc1 [pitavastatin, (3R,5S,6E)-7-[2-cyclopropyl-4-(4-fluorophenyl)-3-quinolyl]-3,5-dihydroxy-6-heptenoic acid] | markedly inhibit | markedly inhibited | markedly inhibited | markedly inhibited
CC[C@H](C)C(=O)O[C@H]1C[C@H](O)C=C2C=C[C@H](C)[C@H](CC[C@@H](O)C[C@@H](O)CC(=O)O)[C@H]21 [pravastatin, (+)-(3R,5R)-3,5-dihydroxy-7-[(1S,2S,6S,8S,8aR)-6-hydroxy-2-methyl-8-[(S)-2-methylbutyryloxy]-1,2,6,7,8,8a-hexahydro-1-naphthyl]heptanoic acid] | markedly inhibit | – | – | –
